Several values for one entry are separate records, joined by “and”; a condition that tells them apart may be missing. Identical values can stand only once.
Columns and labels:
[1] = Colorimetric alkylation rate constant assay with TNB^2− as non-specific thiol; type: physicochemical; set-up: second-order: unit not given here; conditions: for remaining [B]: in µM
[2] = Colorimetric alkylation rate constant assay with thiol N1; type: physicochemical; conditions: for remaining [A]: N1 from calibration curve (N1 in uM); for remaining [A] / remaining [B]: in µM
[3] = Time 2891 sec, [B]0 = 250, Replicates 1-3
[4] = Time 3071 sec, [B]0 = 250, Replicates 1-3
[5] = Time 3252 sec, [B]0 = 250, Replicates 1-3
[6] = Time 3433 sec, [B]0 = 250, Replicates 1-3
[7] = Time 3613 sec, [B]0 = 250, Replicates 1-3

With `O=C(CCl)N1CCOCC1` [Compound C4] the “remaining [B]” value ([1]; Replicate 1, 723 sec, [B]0 = 250) was 243.209, the “remaining [B]” value ([1]; Replicate 1, 903 sec, [B]0 = 250) was 242.478 and the “remaining [B]” value ([1]; Replicate 1, 1084 sec, [B]0 = 250) was 241.798. For the same molecule, the “remaining [B]” value ([1]; Replicate 1, 1265 sec, [B]0 = 250) was 241.104, the “remaining [B]” value ([1]; Replicate 1, 1445 sec, [B]0 = 250) was 240.437 and the “remaining [B]” value ([1]; Replicate 1, 1626 sec, [B]0 = 250) was 239.756. For the same molecule, the “remaining [B]” value ([1]; Replicate 1, 1806 sec, [B]0 = 250) was 239.088, the “remaining [B]” value ([1]; Replicate 1, 1988 sec, [B]0 = 250) was 238.42 and the “remaining [B]” value ([1]; Replicate 1, 2168 sec, [B]0 = 250) was 237.79. The “remaining [B]” value ([1]; Replicate 1, 2349 sec, [B]0 = 250) was 237.085, the “remaining [B]” value ([1]; Replicate 1, 2530 sec, [B]0 = 250) was 236.392 and the “remaining [B]” value ([1]; Replicate 1, 2710 sec, [B]0 = 250) was 235.737. For the same molecule, the “remaining [B]” value ([1]; Replicate 2, 542 sec, [B]0=250) was 242.118, the “remaining [B]” value ([1]; Replicate 2, 723 sec, [B]0=250) was 241.425 and the “remaining [B]” value ([1]; Replicate 2, 903 sec, [B]0=250) was 240.732. The “remaining [B]” value ([1]; Replicate 2, 1084 sec, [B]0=250) was 240.077, the “remaining [B]” value ([1]; Replicate 2, 1265 sec, [B]0=250) was 239.371 and the “remaining [B]” value ([1]; Replicate 2, 1445 sec, [B]0=250) was 238.754. For the same molecule, the “remaining [B]” value ([1]; Replicate 2, 1626 sec, [B]0=250) was 238.023, the “remaining [B]” value ([1]; Replicate 2, 1806 sec, [B]0=250) was 237.355 and the “remaining [B]” value ([1]; Replicate 2, 1988 sec, [B]0=250) was 236.687. The “remaining [B]” value ([1]; Replicate 2, 2168 sec, [B]0=250) was 236.019, the “remaining [B]” value ([1]; Replicate 2, 2349 sec, [B]0=250) was 235.377 and the “remaining [B]” value ([1]; Replicate 2, 2530 sec, [B]0=250) was 234.722. The “remaining [B]” value ([1]; Replicate 2, 2710 sec, [B]0=250) was 234.041, the “remaining [B]” value ([1]; Replicate 3, 723 sec, [B]0=250) was 243.07 and the “remaining [B]” value ([1]; Replicate 3, 903 sec, [B]0=250) was 242.352. For the same molecule, the “remaining [B]” value ([1]; Replicate 3, 1084 sec, [B]0=250) was 241.558, the “remaining [B]” value ([1]; Replicate 3, 1265 sec, [B]0=250) was 240.878 and the “remaining [B]” value ([1]; Replicate 3, 1445 sec, [B]0=250) was 240.248. For the same molecule, the “remaining [B]” value ([1]; Replicate 3, 1626 sec, [B]0=250) was 239.542, the “remaining [B]” value ([1]; Replicate 3, 1806 sec, [B]0=250) was 238.786 and the “remaining [B]” value ([1]; Replicate 3, 1988 sec, [B]0=250) was 238.244. For the same molecule, the “remaining [B]” value ([1]; Replicate 3, 2168 sec, [B]0=250) was 237.513, the “remaining [B]” value ([1]; Replicate 3, 2349 sec, [B]0=250) was 236.921 and the “remaining [B]” value ([1]; Replicate 3, 2530 sec, [B]0=250) was 236.215. The “remaining [B]” value ([1]; Replicate 3, 2710 sec, [B]0=250) was 235.51, the second-order [1, 3] was 0.0007509 and 0.0006764 and 0.0006669 and the “remaining [B]” value [1, 3] was 234.892 and 235.081 and 233.424. For the same molecule, the second-order [1, 4] was 0.000786 and 0.0007119 and 0.0007036, the “remaining [B]” value [1, 4] was 234.187 and 234.35 and 232.743 and the second-order [1, 5] was 0.0008202 and 0.000746 and 0.0007357. For the same molecule, the “remaining [B]” value [1, 5] was 233.519 and 233.72 and 232.088, the second-order [1, 6] was 0.0008541 and 0.0007785 and 0.0007706 and the “remaining [B]” value [1, 6] was 232.889 and 233.04 and 231.445. The second-order [1, 7] was 0.0008877 and 0.0008119 and 0.0008054, the “remaining [B]” value [1, 7] was 232.246 and the second-order ([1]; Time 3794 sec, [B]0 = 250, Replicates 1-3) was 0.0009231 and 0.0008424 and 0.0008418. For the same molecule, the second-order ([1]; Time 3974 sec, [B]0 = 250, Replicates 1-3) was 0.0009567 and 0.0008773 and 0.0008752, the second-order ([1]; Time 4155 sec, [B]0 = 250, Replicates 1-3) was 0.00099 and 0.0009118 and 0.0009131 and the second-order ([1]; Time 4336 sec, [B]0 = 250, Replicates 1-3) was 0.001024 and 0.0009453 and 0.0009474. For the same molecule, the second-order ([1]; Time 4516 sec, [B]0 = 250, Replicates 1-3) was 0.00106 and 0.0009785 and 0.000984, the second-order ([1]; Time 4697 sec, [B]0 = 250, Replicates 1-3) was 0.001096 and 0.001013 and 0.001019 and the second-order ([1]; Time 4878 sec, [B]0 = 250, Replicates 1-3) was 0.001128 and 0.001047 and 0.001054. The second-order ([1]; Time 5058 sec, [B]0 = 250, Replicates 1-3) was 0.001163 and 0.00108 and 0.001089, the second-order ([1]; Time 5239 sec, [B]0 = 250, Replicates 1-3) was 0.001202 and 0.001118 and 0.001125 and the second-order ([1]; Time 5419 sec, [B]0 = 250, Replicates 1-3) was 0.001235 and 0.001153 and 0.001158. For the same molecule, the second-order ([1]; Time 5600 sec, [B]0 = 250, Replicates 1-3) was 0.001269 and 0.001184 and 0.001195, the second-order ([1]; Time 5781 sec, [B]0 = 250, Replicates 1-3) was 0.001306 and 0.001219 and 0.001231 and the second-order ([1]; Time 5961 sec, [B]0 = 250, Replicates 1-3) was 0.001339 and 0.001252 and 0.001269. For the same molecule, the “remaining [A]” value ([2]; Replicate 1, time 576 sec) was 78.3846, the “remaining [B]” value ([2]; Replicate 1, time 576 sec, [B]0 = 250) was 224.265 and the second-order ([2]; Replicate 1, time 576 sec, second-order plot value) was 0.001202. The “remaining [A]” value ([2]; Replicate 1, time 606 sec) was 77.4156, the “remaining [B]” value ([2]; Replicate 1, time 606 sec, [B]0 = 250) was 223.296 and the second-order ([2]; Replicate 1, time 606 sec, second-order plot value) was 0.001257. The “remaining [A]” value ([2]; Replicate 2, time 576 sec) was 78.0283, the “remaining [B]” value ([2]; Replicate 2, time 576 sec, [B]0=250) was 224.887 and the second-order ([2]; Replicate 2, time 576 sec, second-order plot value) was 0.001179. For the same molecule, the “remaining [A]” value ([2]; Replicate 2, time 606 sec) was 77.1496, the “remaining [B]” value ([2]; Replicate 2, time 606 sec, [B]0=250) was 224.008 and the second-order ([2]; Replicate 2, time 606 sec, second-order plot value) was 0.00123. The “remaining [A]” value ([2]; Replicate 3, time 576 sec) was 79.3863, the “remaining [B]” value ([2]; Replicate 3, time 576 sec, [B]0=250) was 224.839 and the second-order ([2]; Replicate 3, time 576 sec, second-order plot value) was 0.001164. For the same molecule, the “remaining [A]” value ([2]; Replicate 3, time 606 sec) was 78.4394, the “remaining [B]” value ([2]; Replicate 3, time 606 sec, [B]0=250) was 223.892 and the second-order ([2]; Replicate 3, time 606 sec, second-order plot value) was 0.001217. For the same molecule, the “remaining [B]” value ([2]; time 0 sec, [B]0 = 250, replicates 1-3) was 247.294 and 246.181 and 246.372, the second-order ([2]; time 0 sec, replicates 1-3) was 0.0001443 and 0.0001055 and 0.0001506 and the “remaining [B]” value ([2]; time 30 sec, [B]0 = 250, replicates 1-3) was 245.834 and 244.471 and 245.125. For the same molecule, the second-order ([2]; time 30 sec, replicates 1-3) was 0.0001956 and 0.0001641 and 0.0002207, the “remaining [B]” value ([2]; time 60 sec, [B]0 = 250, replicates 1-3) was 244.264 and 243.246 and 243.566 and the second-order ([2]; time 60 sec, replicates 1-3) was 0.0002611 and 0.0002284 and 0.000272. The “remaining [B]” value ([2]; time 91 sec, [B]0 = 250, replicates 1-3) was 243.074 and 241.878 and 242.29, the second-order ([2]; time 91 sec, replicates 1-3) was 0.0003157 and 0.0002781 and 0.0003304 and the “remaining [B]” value ([2]; time 121 sec, [B]0 = 250, replicates 1-3) was 241.802 and 240.652 and 241.043. For the same molecule, the second-order ([2]; time 121 sec, replicates 1-3) was 0.0003702 and 0.0003322 and 0.0003836, the “remaining [B]” value ([2]; time 151 sec, [B]0 = 250, replicates 1-3) was 240.639 and 239.37 and 239.711 and the second-order ([2]; time 151 sec, replicates 1-3) was 0.0004294 and 0.0003825 and 0.0004404. The “remaining [B]” value ([2]; time 182 sec, [B]0 = 250, replicates 1-3) was 239.367 and 238.23 and 238.549, the second-order ([2]; time 182 sec, replicates 1-3) was 0.0004821 and 0.0004386 and 0.0004918 and the “remaining [B]” value ([2]; time 212 sec, [B]0 = 250, replicates 1-3) was 238.15 and 237.033 and 237.472. For the same molecule, the second-order ([2]; time 212 sec, replicates 1-3) was 0.0005317 and 0.0004932 and 0.0005467, the “remaining [B]” value ([2]; time 242 sec, [B]0 = 250, replicates 1-3) was 236.878 and 235.893 and 236.139 and the second-order ([2]; time 242 sec, replicates 1-3) was 0.0005943 and 0.0005514 and 0.0005999. For the same molecule, the “remaining [B]” value ([2]; time 273 sec, [B]0 = 250, replicates 1-3) was 235.688 and 234.696 and 235.147, the second-order ([2]; time 273 sec, replicates 1-3) was 0.0006417 and 0.0006068 and 0.0006568 and the “remaining [B]” value ([2]; time 303 sec, [B]0 = 250, replicates 1-3) was 234.525 and 233.67 and 234.042. The second-order ([2]; time 303 sec, replicates 1-3) was 0.0006954 and 0.000662 and 0.0007064, the “remaining [B]” value ([2]; time 333 sec, [B]0 = 250, replicates 1-3) was 233.361 and 232.444 and 232.88 and the second-order ([2]; time 333 sec, replicates 1-3) was 0.0007529 and 0.0007182 and 0.0007667. The “remaining [B]” value ([2]; time 364 sec, [B]0 = 250, replicates 1-3) was 232.279 and 231.447 and 231.944, the second-order ([2]; time 364 sec, replicates 1-3) was 0.0007999 and 0.0007714 and 0.0008167 and the “remaining [B]” value ([2]; time 394 sec, [B]0 = 250, replicates 1-3) was 231.17 and 230.25 and 230.782. The second-order ([2]; time 394 sec, replicates 1-3) was 0.0008594 and 0.0008269 and 0.0008777, the “remaining [B]” value ([2]; time 424 sec, [B]0 = 250, replicates 1-3) was 230.115 and 229.224 and 229.847 and the second-order ([2]; time 424 sec, replicates 1-3) was 0.000908 and 0.0008806 and 0.000931. The “remaining [B]” value ([2]; time 454 sec, [B]0 = 250, replicates 1-3) was 228.924 and 228.283 and 228.77, the second-order ([2]; time 454 sec, replicates 1-3) was 0.000965 and 0.0009423 and 0.0009806 and the “remaining [B]” value ([2]; time 485 sec, [B]0 = 250, replicates 1-3) was 227.977 and 227.229 and 227.834. For the same molecule, the second-order ([2]; time 485 sec, replicates 1-3) was 0.001015 and 0.0009923 and 0.001037, the “remaining [B]” value ([2]; time 515 sec, [B]0 = 250, replicates 1-3) was 226.922 and 226.203 and 226.814 and the second-order ([2]; time 515 sec, replicates 1-3) was 0.001071 and 0.001049 and 0.001093. For the same molecule, the “remaining [B]” value ([2]; time 545 sec, [B]0 = 250, replicates 1-3) was 225.813 and 225.205 and 225.879 and the second-order ([2]; time 545 sec, replicates 1-3) was 0.001123 and 0.001109 and 0.001148.
